Values of other authors in patent US9212386B2, “Enzymatic cleavage based lateral flow assays” (Rapid Pathogen Screening, Inc., priority 2011, dated 2015).
*: point of attachment. FITC = O=C1OC2(c3ccc(O)cc3Oc3cc(O)ccc32)c2ccc(NC(=S)*)cc21; Ahx = NCCCCCC(=O)O

Key:
[1] = tested on: Bacterial Enzyme Targets (bacterial supernatants of tested micro-organisms); details: for In vitro Cleavage Activity (using FRET): micro-organisms whose enzymes cleave the peptide
[2] = tested on: Bacterial Enzyme Targets (tested micro-organisms); details: micro-organisms whose enzymes cleave the peptide

Substance | In vitro Cleavage Activity (using FRET) [1] | Ex vivo Cleavage activity (using FRET) [2] | selectivity of peptide cleavage [1]
FITC-Ahx-Gly-Gly-Gly-Gly-Lys-DABCYL ({FITC-Ahx}-GGGGK-{DABCYL}) | P. aeruginosa | P. aeruginosa | 
FITC-Ahx-Leu-DVal-Lys-DABCYL [BikKam 6] | B. anthracis (moderate) |  | 
FITC-Ahx-Leu-DLeu-Lys-DABCYL [BikKam 1] | B. anthracis |  | highly selective for B. anthracis
